Laboratory results published in US9174932B2, “CaSR agonists” (AJINOMOTO CO., INC., priority 2008, dated 2015).

Biological target: T1, human CaSR (Homo sapiens, UniProt P41180, E1011Q)
T1 construct: expressed in transfected cells; host or cells: 293E cells (HEK293 expressing EBNA1, ATCC CRL-10852), transient transfection of hCaSR/pcDNA3.1
T1 sequence (P41180 20-1078 E1011Q): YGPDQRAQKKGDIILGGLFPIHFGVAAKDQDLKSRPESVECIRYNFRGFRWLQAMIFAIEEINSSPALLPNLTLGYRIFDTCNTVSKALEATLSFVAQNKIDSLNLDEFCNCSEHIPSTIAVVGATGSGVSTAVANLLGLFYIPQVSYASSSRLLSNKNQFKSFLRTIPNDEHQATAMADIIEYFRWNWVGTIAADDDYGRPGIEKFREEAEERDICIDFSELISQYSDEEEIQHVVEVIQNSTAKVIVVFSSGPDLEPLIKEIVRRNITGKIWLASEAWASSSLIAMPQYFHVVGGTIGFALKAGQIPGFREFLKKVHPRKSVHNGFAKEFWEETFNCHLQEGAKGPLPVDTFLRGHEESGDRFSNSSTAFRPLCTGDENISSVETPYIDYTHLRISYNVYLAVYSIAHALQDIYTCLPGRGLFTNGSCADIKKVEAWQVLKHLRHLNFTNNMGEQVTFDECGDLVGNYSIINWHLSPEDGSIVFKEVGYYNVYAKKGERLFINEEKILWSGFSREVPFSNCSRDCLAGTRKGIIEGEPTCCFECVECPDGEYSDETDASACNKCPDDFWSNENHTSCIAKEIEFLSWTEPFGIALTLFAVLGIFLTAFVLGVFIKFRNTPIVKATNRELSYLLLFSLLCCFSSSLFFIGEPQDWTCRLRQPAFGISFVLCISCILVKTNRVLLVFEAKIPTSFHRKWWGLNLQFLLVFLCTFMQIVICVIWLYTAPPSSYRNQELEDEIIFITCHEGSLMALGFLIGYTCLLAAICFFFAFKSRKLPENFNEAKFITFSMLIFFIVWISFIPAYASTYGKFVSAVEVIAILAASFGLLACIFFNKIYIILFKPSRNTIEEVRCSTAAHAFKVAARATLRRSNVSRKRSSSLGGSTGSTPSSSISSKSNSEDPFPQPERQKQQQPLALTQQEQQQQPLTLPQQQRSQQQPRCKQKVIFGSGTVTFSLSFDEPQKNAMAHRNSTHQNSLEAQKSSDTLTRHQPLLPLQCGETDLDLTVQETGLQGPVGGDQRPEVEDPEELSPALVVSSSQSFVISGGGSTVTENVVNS
Test: Evaluation of CaSR agonistic activity (293E cells transfected with hCaSR, Ca2+ fluorescent indicator, FLIPR)
Type: cell-based
Conditions: 293E cells expressing human CaSR; concentration giving activation rate 50%
Experimental: 293E cells (HEK293 cell expressing EBNA1, ATCC No. CRL-10852) were cultured in DMEM containing 10% fetal bovine serum (Dulbecco's modified Eagle medium containing […] Glucose, by NACALAI TESQUE, INC.), in the presence of 250 μg/mL of G418. The cells were spread on a petri dish of 10 cm diameter in 1.8×10^6 cells/15 mL. After leaving them in the CO2 incubator (5% CO2, 37° C.) for 24 hours, plasmid expressing human CaSR: hCaSR/pcDNA3.1 was transfected with a transfection reagent: Mirus TransIT 293 (by Takara Bio Inc.). After leaving it in the CO2 incubator for 24 hours, the cells were collected by DMEM containing 10% fetal bovine serum and seeded on poly-D-lysine coat 384 well plate (by Falcon) in 15,000 cells/well. After leaving them in the CO2 incubator for 24 hours, the medium was removed. Then, 50 μL/well of Ca^2+ fluorescent indicator: Calcium 4 Assay Kit (by Molecular Devices) that was dissolved in an assay buffer (146 mM NaCl, 5 mM KCl, 1 mM MgSO4, 1 mg/mL Glucose, 20 mM HEPES (pH 7.2), 1.5 mM CaCl2) was added thereto, and left at 37° C. for 1 hour and at room temperature for 30 minutes to absorb the fluorescent indicator. The 384 well plate was transferred to FLIPR (by Molecular Devices). Then, 12.5 μL/well of a compound that was dissolved in a 0.1% BSA containing assay buffer was added thereto, and change in fluorescence intensity was measured for 3 minutes. Meanwhile, Compound No. 20 was purchased from Bachem.
The difference between the maximum value and the minimum value (RFU(Max−Min)) of the fluorescence intensity before and after adding a compound was automatically calculated by FLIPR. RFU(Max−Min) when adding a compound in maximum concentration was defined as 100%; and RFU(Max−Min) when adding DMSO instead of the compound in the same concentration as that of the compound was defined as 0%.

| Structure (SMILES) | EC50 [nM] |
| --- | --- |
| COc1ccc(NC(=O)CC[C@H](N)C(=O)O)cc1S(=O)(=O)O [Compound No. 2, N^5-(4-methoxy-3-sulfophenyl)-L-glutamine] | 2300 |
| COc1ccc(S(=O)(=O)O)cc1NC(=O)CC[C@H](N)C(=O)O [Compound No. 3, N^5-(2-methoxy-5-sulfophenyl)-L-glutamine] | 560 |
| Cc1cc(C)c(S(=O)(=O)O)cc1NC(=O)CC[C@H](N)C(=O)O [Compound No. 4, N^5-(2,4-dimethyl-5-sulfophenyl)-L-glutamine] | 59 |
| Cc1ccc(NC(=O)CC[C@H](N)C(=O)O)cc1S(=O)(=O)O [Compound No. 5, N^5-(4-methyl-3-sulfophenyl)-L-glutamine] | 130 |
| N[C@@H](CCC(=O)Nc1cc(S(=O)(=O)O)cc([N+](=O)[O-])c1O)C(=O)O [Compound No. 6, N^5-(2-hydroxy-3-nitro-5-sulfophenyl)-L-glutamine] | 2700 |
| N[C@@H](CCC(=O)Nc1cc(S(=O)(=O)O)ccc1O)C(=O)O [Compound No. 8, N^5-(2-hydroxy-5-sulfophenyl)-L-glutamine] | 100 |
| N[C@@H](CCC(=O)Nc1ccc(Cl)c(S(=O)(=O)O)c1)C(=O)O [Compound No. 9, N^5-(4-chloro-3-sulfophenyl)-L-glutamine] | 270 |
| N[C@@H](CCC(=O)Nc1cccc(S(=O)(=O)O)c1O)C(=O)O [Compound No. 10, N^5-(2-hydroxy-3-sulfophenyl)-L-glutamine] | 17 |
| N[C@@H](CCC(=O)Nc1ccc(O)c(S(=O)(=O)O)c1)C(=O)O [Compound No. 11, N^5-(4-hydroxy-3-sulfophenyl)-L-glutamine] | 86 |
| CN(C(=O)CC[C@H](N)C(=O)O)c1cccc(S(=O)(=O)O)c1 [Compound No. 12, N^5-methyl-N^5-(3-sulfophenyl)-L-glutamine] | 200 |
| N[C@@H](COC(=O)Nc1cccc(S(=O)(=O)O)c1)C(=O)O [Compound No. 13, O-{[(3-sulfophenyl)amino]carbonyl}-L-serine] | 72 |
| N[C@@H](CCC(=O)Nc1cccc(C(=O)O)c1)C(=O)O [Compound No. 14, 3-(L-γ-glutamylamino)benzoic acid] | 2000 |
| N[C@@H](CCC(=O)Nc1cccc(C(=O)O)c1O)C(=O)O [Compound No. 15, 3-(L-γ-glutamylamino)-2-hydroxybenzoic acid] | 34 |
| N[C@@H](CCC(=O)Nc1cc(Br)cc(C(=O)O)c1)C(=O)O [Compound No. 16, 3-bromo-5-(L-γ-glutamylamino)benzoic acid] | 48 |
| COP(=O)(O)c1cccc(NC(=O)CC[C@H](N)C(=O)O)c1 [Compound No. 17, N^5-{3-[hydroxyl(methoxy)phosphoryl]phenyl}-L-glutamine] | 2000 |
| N[C@@H](CCC(=O)Nc1cccc(P(=O)(O)O)c1)C(=O)O [Compound No. 18, N^5-(3-phosphonophenyl)-L-glutamine] | 530 |
| N[C@@H](CCC(=O)Nc1cccc([N+](=O)[O-])c1)C(=O)O [Compound No. 19, N^5-(3-nitrophenyl)-L-glutamine] | 400 |
| N[C@@H](CCC(=O)Nc1ccccc1)C(=O)O [Compound No. 20, N-γ-glutamyl-aniline] | 940 |
| Cc1c(Cl)cc(NC(=O)CC[C@H](N)C(=O)O)cc1S(=O)(=O)O [Compound No. 21, N^5-(3-chloro-4-methyl-5-sulfophenyl)-L-glutamine] | 5.7 |

| Structure (SMILES) | EC50 [nM] |
| --- | --- |
| Cc1c(Cl)cc(S(=O)(=O)O)cc1NC(=O)CC[C@H](N)C(=O)O [Compound No. 22, N^5-(3-chloro-2-methyl-5-sulfophenyl)-L-glutamine] | 1.4 |
| N[C@@H](CCC(=O)Nc1cc([N+](=O)[O-])cc(S(=O)(=O)O)c1O)C(=O)O [Compound No. 23, N^5-(2-hydroxy-5-nitro-3-sulfophenyl)-L-glutamine] | 890 |
| N[C@@H](CCC(=O)Nc1cc(Cl)cc(C(=O)O)c1Cl)C(=O)O [Compound No. 24, 2,5-dichloro-3-(L-γ-glutamylamino)benzoic acid] | 22 |
| N[C@@H](CCC(=O)Nc1cccc(C(=O)O)c1Cl)C(=O)O [Compound No. 25, 2-chloro-3-(L-γ-glutamylamino)benzoic acid] | 970 |
| N[C@@H](CCC(=O)Nc1cc(C(=O)O)ccc1Cl)C(=O)O [Compound No. 26, 4-chloro-3-(L-γ-glutamylamino)benzoic acid] | 160 |
| COc1c(NC(=O)CC[C@H](N)C(=O)O)cccc1C(=O)O [Compound No. 27, 2-methoxy-3-(L-γ-glutamylamino)benzoic acid] | 150 |
| N[C@@H](CCC(=O)Nc1ccc(O)c(C(=O)O)c1)C(=O)O [Compound No. 28, 6-hydroxy-3-(L-γ-glutamylamino)benzoic acid] | 330 |
| Cc1ccc(C(=O)O)cc1NC(=O)CC[C@H](N)C(=O)O [Compound No. 29, 4-methyl-3-(L-γ-glutamylamino)benzoic acid] | 530 |
| N[C@@H](CCC(=O)Nc1cc(O)cc(C(=O)O)c1)C(=O)O [Compound No. 30, 5-hydroxy-3-(L-γ-glutamylamino)benzoic acid] | 2900 |
| Cc1c(NC(=O)CC[C@H](N)C(=O)O)cccc1C(=O)O [Compound No. 31, 3-(L-γ-glutamylamino)-2-methyl-benzoic acid] | 3700 |
| N[C@@H](CCC(=O)Nc1cc(Cl)cc(C(=O)O)c1)C(=O)O [Compound No. 32, 5-chloro-3-(L-γ-glutamylamino)benzoic acid] | 8.8 |
| Cc1c(Cl)cc(NC(=O)OC[C@H](N)C(=O)O)cc1S(=O)(=O)O [Compound No. 33, O-{[(3-chloro-4-methyll-5-sulfophenyl)amino]carbonyl}-L-serine] | 2.1 |
| N[C@@H](COC(=O)Nc1cc(Cl)cc(S(=O)(=O)O)c1O)C(=O)O [Compound No. 34, sodium 3-{[(2S)-2-amino-2-carboxyethoxycarbonyl]amino}-5-chloro-2-hydroxybenzenesulfonate] | 1.9 |
| Cc1c(Cl)cc(S(=O)(=O)O)cc1NC(=O)OC[C@H](N)C(=O)O [Compound No. 35, O-{[(3-chloro-2-methyl-5-sulfophenyl)amino]carbonyl}-L-serine] | 3.7 |
| COc1c(NC(=O)OC[C@H](N)C(=O)O)cc(Cl)cc1S(=O)(=O)O [Compound No. 36, O-{[(5-chloro-2-methoxy-3-sulfophenyl)amino]carbonyl}-L-serine] | 3500 |
| N[C@@H](CCC(=O)Nc1cc(S(=O)(=O)O)ccc1Cl)C(=O)O [Compound No. 37, N^5-(2-chloro-5-sulfophenyl)-L-glutamine] | 2.9 |
| N[C@@H](CCC(=O)Nc1ccc(S(=O)(=O)O)c(Cl)c1)C(=O)O [Compound No. 38, N^5-(3-chloro-4-sulfophenyl)-L-glutamine] | 6700 |
| N[C@@H](CCC(=O)Nc1ccc(S(=O)(=O)O)c(I)c1)C(=O)O [Compound No. 40, N^5-(3-iodo-4-sulfophenyl)-L-glutamine] | 7900 |
| N[C@@H](CCC(=O)Nc1cc(I)ccc1S(=O)(=O)O)C(=O)O [Compound No. 41, N^5-(5-iodo-2-sulfophenyl)-L-glutamine] | 2300 |
